From patent publication US20100184683A1, “ANTIBACTERIAL AND ANTIFUNGAL PEPTIDES” (C3 JIAN, INC., priority 2009, published 2010)
≈ marks a conversion by molar mass, not a printed value. Like-named read-outs stand apart in the source and are kept apart here. Ends that are not written are not given here. Peptide text beside a SMILES is read from it.

What was measured:
T. rubrum = assay type: cell-based, Trichophyton rubrum
Method: (§1) In certain embodiments the MIC assays are performed as described herein in the Examples. For each organism, the media and growth conditions utilized is detailed in Table 8.
(§2) In certain embodiments the MIC assays are performed as follows: For each organism, the media and growth conditions utilized is detailed in Table 8.

S. mutans = assay type: cell-based, Streptococcus mutans
Method: as §1, §2

A. niger = assay type: cell-based, Aspergillus niger
Method: as §1, §2

P. aeruginosa = assay type: cell-based, Pseudomonas aeruginosa; settings: P. aeruginosa; MH, 37° C., aerobic; inoculum 10^5 CFU/ml; 18-24 h or 48 h
Method: as §1, §2

B. subtilis = assay type: cell-based, Bacillus subtilis
Method: as §1, §2

C. jeikeium = assay: MIC assay, C. jeikeium; assay type: cell-based, Corynebacterium jeikium; settings: TSB supplemented with 1% Tween-80, 37° C., aerobic, inoculum 10^6 CFU/ml, 18-24 h or 48 h
Method: as §1, §2

MRSA = assay type: cell-based, Methicillin-resistant Staphylococcus aureus; settings: MRSA; BHI supplemented with 2% glucose, 37° C., aerobic; inoculum 10^5 CFU/ml; 18-24 h or 48 h
Method: as §1, §2

S. epidermidis = assay type: cell-based
Method: as §1, §2

A. baumannii = assay type: cell-based, Acinetobacter baumannii
Method: as §1, §2

P. gingivalis = assay type: cell-based, Porphyromonas gingivalis
Method: as §1, §2

C. albicans = assay type: cell-based, Candida albicans
Method: as §1, §2

A. naeslundii = assay type: cell-based, Actinomyces naeslundii
Method: as §1, §2

C. difficile = assay type: cell-based, Clostridium difficile
Method: as §1, §2

[1] = T. rubrum, Potato Dextrose Agar, 25° C., aerobic, inoculum 10^5 CFU/ml, 18-24 h or 48 h
[2] = S. epidermidis, BHI supplemented with 0.25% glucose, 37° C., aerobic, inoculum 10^5 CFU/ml, 18-24 h or 48 h
[3] = A. niger, Potato Dextrose Agar, 25° C., aerobic, inoculum 10^5 CFU/ml, 18-24 h or 48 h
[4] = B. subtilis, BHI, 30° C., aerobic, inoculum 10^5 CFU/ml, 18-24 h or 48 h
[5] = S. mutans, TH supplemented with 1% sucrose, 37° C., anaerobic, inoculum 10^5 CFU/ml, 18-24 h or 48 h
[6] = A. baumannii, LB, 30° C., anaerobic, inoculum 10^5 CFU/ml, 18-24 h or 48 h
[7] = C. difficile, BHIS, 37° C., anaerobic, inoculum 10^5 CFU/ml, 18-24 h or 48 h

CC[C@H](C)[C@H](NC(=O)[C@H](CCCNC(=N)N)NC(=O)[C@@H]1CCCN1C(=O)[C@H](CCC(=O)O)NC(=O)[C@H](CC(C)C)NC(=O)[C@@H]1CCCN1C(=O)[C@H](CC(=O)O)NC(=O)[C@@H](N)CC(C)C)C(=O)N[C@@H](C)C(=O)N1CCC[C@H]1C(=O)N1CCC[C@H]1C(=O)NCC(=O)N[C@@H](CC(=O)O)C(=O)N[C@@H](CCCNC(=N)N)C(=O)N[C@@H](CO)C(=O)N[C@@H](Cc1c[nH]cn1)C(=O)N[C@@H](CCC(N)=O)C(=O)NCC(=O)N[C@@H](C)C(=O)N1CCC[C@H]1C(=O)N[C@@H](C)C(=O)N[C@@H](CS)C(=O)N[C@@H](Cc1c[nH]cn1)C(=O)N[C@@H](CCCNC(=N)N)C(=O)N[C@@H](CC(=O)O)C(=O)N1CCC[C@H]1C(=O)N[C@@H](CC(C)C)C(=O)N[C@@H](CCCNC(=N)N)C(=O)NCC(=O)N[C@@H](CCCNC(=N)N)C(=O)N[C@@H](CO)C(=O)N[C@@H](C)C(=O)N[C@@H](CCCNC(=N)N)C(=O)N[C@@H](CC(=O)O)C(=O)N[C@@H](C)C(=O)N[C@@H](CCC(=O)O)C(=O)N[C@@H](CCCNC(=N)N)C(=O)O [PF-C019] (H-LDPLEPRIAPPGDRSHQGAPACHRDPLRGRSARDAER-OH; N-terminus and C-terminus assumed)
MIC (T. rubrum): 50 µM (≈ 204 µg/mL) | MIC (S. mutans): 25 µM (≈ 102 µg/mL) | MIC (A. niger): 50 µM (≈ 204 µg/mL)

CC[C@H](C)[C@H](NC(=O)[C@H](CCCNC(=N)N)NC(=O)[C@@H](NC(=O)[C@H](CCCCN)NC(=O)[C@H](CCCCN)NC(=O)[C@H](CC(C)C)NC(=O)[C@H](CC(C)C)NC(=O)[C@H](CCCCN)NC(=O)[C@H](CCCNC(=N)N)NC(=O)[C@H](Cc1c[nH]cn1)NC(=O)[C@H](CCCCN)NC(=O)[C@H](CCCCN)NC(=O)[C@H](CCCCN)NC(=O)[C@H](C)NC(=O)[C@H](CCSC)NC(=O)[C@H](CCCNC(=N)N)NC(=O)[C@H](CCCCN)NC(=O)[C@H](CCCNC(=N)N)NC(=O)[C@H](CCCNC(=N)N)NC(=O)[C@H](CCCCN)NC(=O)[C@H](CCCCN)NC(=O)[C@@H](NC(=O)[C@@H](NC(=O)[C@H](CO)NC(=O)CN)C(C)C)[C@@H](C)CC)[C@@H](C)O)C(=O)N[C@@H](CCC(N)=O)C(=O)N[C@@H](CCCNC(=N)N)C(=O)N[C@@H](CCCNC(=N)N)C(=O)N[C@@H](CCCNC(=N)N)C(=O)N[C@@H](C)C(=O)NCC(=O)N[C@@H](CCCCN)C(=O)O [PF-527] (H-GSVIKKRRKRMAKKKHRKLLKKTRIQRRRAGK-OH; N-terminus and C-terminus assumed)
MIC (P. aeruginosa): 50 µM (≈ 197 µg/mL) | MIC (T. rubrum; [1]): 25 µM (≈ 98.5 µg/mL) | MIC (B. subtilis): 12.5 µM (≈ 49.3 µg/mL) | MIC (C. jeikeium): 6.25 µM (≈ 24.6 µg/mL) | MIC (MRSA): 50 µM (≈ 197 µg/mL) | MIC (S. epidermidis; [2]): 25 µM (≈ 98.5 µg/mL) | MIC (A. niger; [3]): 50 µM (≈ 197 µg/mL)

CC[C@H](C)[C@H](NC(=O)[C@H](CO)NC(=O)[C@H](CC(C)C)NC(=O)[C@H](CCSC)NC(=O)[C@H](CC(C)C)NC(=O)[C@H](CCC(=O)O)NC(=O)CNC(=O)[C@H](CCCCN)NC(=O)[C@H](Cc1ccc(O)cc1)NC(=O)[C@H](CCC(=O)O)NC(=O)[C@H](CCCCN)NC(=O)[C@@H](NC(=O)[C@@H](NC(=O)[C@@H](NC(=O)[C@H](CCCCN)NC(=O)[C@H](CCCNC(=N)N)NC(=O)[C@H](CC(C)C)NC(=O)[C@@H](NC(=O)[C@H](CCCCN)NC(=O)[C@H](Cc1ccccc1)NC(=O)[C@H](CCCCN)NC(=O)[C@@H](N)CO)C(C)C)[C@@H](C)CC)[C@@H](C)CC)[C@@H](C)CC)C(=O)N[C@@H](CCC(N)=O)C(=O)N[C@@H](CCCCN)C(=O)N[C@@H](CCC(N)=O)C(=O)N[C@@H](CCCNC(=N)N)C(=O)O [PF-530] (H-SKFKVLRKIIIKEYKGELMLSIQKQR-OH; N-terminus and C-terminus assumed)
MIC (A. baumannii): 25 µM (≈ 79.4 µg/mL)

CC[C@H](C)[C@H](N)C(=O)N[C@@H](CC(C)C)C(=O)N[C@@H](CC(N)=O)C(=O)N[C@@H](CCCCN)C(=O)N[C@@H](CCCCN)C(=O)N1CCC[C@H]1C(=O)N[C@@H](CCCCN)C(=O)N[C@@H](CC(C)C)C(=O)N1CCC[C@H]1C(=O)N[C@@H](CC(C)C)C(=O)N[C@@H](Cc1c[nH]c2ccccc12)C(=O)N[C@@H](CCCCN)C(=O)N[C@@H](CC(C)C)C(=O)NCC(=O)N[C@@H](CCCCN)C(=O)N[C@@H](CC(N)=O)C(=O)N[C@@H](Cc1ccc(O)cc1)C(=O)N[C@@H](Cc1ccccc1)C(=O)N[C@@H](CCCNC(=N)N)C(=O)N[C@@H](CCCNC(=N)N)C(=O)N[C@@H](Cc1ccccc1)C(=O)N[C@@H](Cc1ccc(O)cc1)C(=O)N[C@H](C(=O)N[C@@H](CC(C)C)C(=O)N1CCC[C@H]1C(=O)N[C@H](C(=O)N[C@@H](Cc1ccccc1)C(=O)N[C@@H](CC(C)C)C(=O)N[C@@H](C)C(=O)O)[C@@H](C)O)C(C)C [PF-C287] (H-ILNKKPKLPLWKLGKNYFRRFYVLPTFLA-OH; N-terminus and C-terminus assumed)
MIC (P. gingivalis): 50 µM (≈ 178 µg/mL) | MIC (C. albicans): 50 µM (≈ 178 µg/mL) | MIC (A. naeslundii): 25 µM (≈ 89.1 µg/mL)

YIQFHLNQQPRPKVKKIKIFL [PF-531]
MIC (P. aeruginosa): 50 µM | MIC (T. rubrum; [1]): 50 µM | MIC (B. subtilis; [4]): 25 µM | MIC (C. jeikeium): 6.25 µM | MIC (S. epidermidis; [2]): 50 µM | MIC (S. mutans; [5]): 12.5 µM | MIC (A. baumannii; [6]): 25 µM | MIC (A. niger; [3]): 25 µM | MIC (C. difficile; [7]): 12.5 µM

WSRVPGHSDTGWKVWHRW [PF-547]
MIC (T. rubrum; [1]): 25 µM | MIC (B. subtilis; [4]): 25 µM | MIC (S. mutans; [5]): 12.5 µM

CC[C@H](C)[C@H](NC(=O)CNC(=O)[C@@H](N)CCSC)C(=O)N[C@H](C(=O)N[C@@H](C)C(=O)NCC(=O)N[C@H](C(=O)N[C@H](C(=O)N[C@@H](CCCCN)C(=O)N[C@@H](Cc1ccccc1)C(=O)N[C@H](C(=O)N[C@@H](CCCCN)C(=O)NCC(=O)N[C@@H](CC(C)C)C(=O)N[C@H](C(=O)N[C@@H](CCC(=O)O)C(=O)N[C@@H](CCCCN)C(=O)N[C@@H](Cc1ccccc1)C(=O)N[C@H](C(=O)NCC(=O)N[C@@H](CCCCN)C(=O)O)[C@@H](C)O)[C@@H](C)CC)[C@@H](C)CC)[C@@H](C)CC)[C@@H](C)CC)[C@@H](C)CC [PF-006]
MIC (B. subtilis; [4]): 25 µM (≈ 56.9 µg/mL) | MIC (MRSA): 50 µM (≈ 114 µg/mL) | MIC (A. baumannii; [6]): 50 µM (≈ 114 µg/mL)

CC[C@H](C)[C@H](NC(=O)[C@H](CCC(=O)O)NC(=O)[C@H](CCCCN)NC(=O)[C@@H](NC(=O)[C@H](CCCCN)NC(=O)[C@H](CCC(=O)O)NC(=O)[C@H](CC(C)C)NC(=O)[C@@H](NC(=O)[C@H](CC(=O)O)NC(=O)[C@@H](NC(=O)[C@H](CCC(N)=O)NC(=O)[C@H](CCCCN)NC(=O)[C@H](CCCCN)NC(=O)[C@H](CC(N)=O)NC(=O)[C@@H](N)CCCCN)[C@@H](C)O)[C@@H](C)CC)C(C)C)C(=O)N[C@@H](CC(C)C)C(=O)N[C@@H](CC(=O)O)C(=O)N[C@@H](CCCCN)C(=O)N[C@@H](CCCCN)C(=O)N[C@@H](CCCCN)C(=O)N[C@@H](CCCCN)C(=O)N[C@H](C(=O)N[C@@H](CCCCN)C(=O)N[C@@H](CO)C(=O)N[C@H](C(=O)NCC(=O)N[C@@H](CCC(N)=O)C(=O)N[C@@H](CCCCN)C(=O)N[C@@H](CC(C)C)C(=O)N[C@@H](Cc1ccc(O)cc1)C(=O)O)C(C)C)[C@@H](C)O [PF-538] (H-KNKKQTDILEKVKEILDKKKKTKSVGQKLY-OH; N-terminus and C-terminus assumed)
MIC (A. baumannii): 25 µM (≈ 89 µg/mL) | MIC (C. difficile): 25 µM (≈ 89 µg/mL)

FELVDWLETNLGKILKSKSA [PF-522]
MIC (C. difficile; [7]): 25 µM

CC[C@H](C)[C@H](NC(=O)[C@H](CCCCN)NC(=O)[C@H](C)NC(=O)[C@H](Cc1ccccc1)NC(=O)[C@@H](NC(=O)[C@H](C)NC(=O)[C@H](CC(C)C)NC(=O)[C@H](CO)NC(=O)[C@@H](N)CC(C)C)[C@@H](C)O)C(=O)N[C@@H](Cc1ccccc1)C(=O)N[C@@H](CCSC)C(=O)N[C@H](C(=O)N[C@@H](CCCNC(=N)N)C(=O)N[C@@H](CO)C(=O)N[C@@H](CC(N)=O)C(=O)N[C@@H](Cc1c[nH]c2ccccc12)C(=O)N[C@@H](CO)C(=O)N[C@@H](CC(C)C)C(=O)N[C@@H](CCCCN)C(=O)N[C@@H](CCCNC(=N)N)C(=O)N[C@@H](Cc1ccccc1)C(=O)N[C@@H](CC(N)=O)C(=O)N[C@@H](CCCNC(=N)N)C(=O)N[C@@H](CC(C)C)C(=O)O)[C@@H](C)O [PF-278] (H-LSLATFAKIFMTRSNWSLKRFNRL-OH; N-terminus and C-terminus assumed)
MIC (T. rubrum): 50 µM | MIC (S. epidermidis): 50 µM | MIC (C. albicans): 50 µM

MPVSKKRYMLSSAYATALGICYGQVATDEKESEITAIPDLLDYLSVEEYLL [PF-C163]
MIC (P. gingivalis): 50 µM | MIC (S. epidermidis): 50 µM | MIC (A. naeslundii): 50 µM
